Measurements as given in patent US11028095B2, “Spiro-lactam and bis-spiro-lactam NMDA receptor modulators and uses thereof” (Aptinyx Inc., priority 2016, dated 2021).

Legend:
[1] = system: positive (hedonic) 50-kHz ultrasonic vocalizations (USVs); assay: Positive Emotional Learning (PEL) test; assay type: in vivo; settings: rat, PO, dose 0.001-1 mg/kg, one hour after administration
Outline: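 Rats received test compound or vehicle (0.5% carboxymethyl cellulose in saline) 1 h before 3 min of experimenter-delivered rough-and-tumble play in alternating 15 s play and no-stimulation blocks. Frequency-modulated 50-kHz USVs during no-stimulation (CS) periods were counted; animals not habituated beforehand.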

[2] = target: T1, NMDAR2B expressing HEK cell membranes (Homo sapiens, UniProt Q05586+Q13224); assay: NMDAR agonist assay, [3H]MK-801 binding, NMDAR2B; assay type: biochemical
T1 construct: expressed in transfected cells; host or cells: HEK cells (membrane extract)
Description: (§1) (nonequilibrium conditions).
(§2) The baseline value was determined from the best fit curve of the DPM values modeled using the GraphPad program and the log(agonist) vs. response(three parameters) algorithm was then subtracted from all points in the dataset.

[3] = target: T2, NMDAR2D expressing HEK cell membranes (Homo sapiens, UniProt O15399+Q05586); assay: NMDAR agonist assay, [3H]MK-801 binding, NMDAR2D; assay type: biochemical
T2 construct: expressed in transfected cells; host or cells: HEK cells (membrane extract)
Description: as §1, §2

IV pharmacokinetics = assay type: in vivo; settings: rat, in vivo, Sprague Dawley rats, 2 mg/kg, normal saline
Description: Sprague Dawley rats were dosed intravenously using a normal saline formulation containing 2 mg/kg of the compounds identified in the below table. The table below summarizes the results of the IV pharmacokinetics.

[4] = Oral pharmacokinetics (plasma, brain, CSF); assay type: in vivo; settings: Sprague Dawley rats, per os, 10 mg/kg
Description: In another experiment, Sprague Dawley rats were dosed per os using a normal saline formulation containing 10 mg/kg of the compounds identified in the table below. Plasma, brain, and CSF samples were analyzed at various time points over a 24 hour period. The table below summarizes the results of the oral pharmacokinetics.

[5] = system: Sciatic nerve chronic constriction nerve injury; assay: Bennett nerve injury assay (mechanical analgesia, paw withdrawal threshold); assay type: in vivo, Sprague Dawley rats
Description: The Bennett model of mechanical analgesia is used to assess the analgesic effects of compounds as measured by paw withdrawal threshold. Bennett G J, Xie Y K, “A peripheral mononeuropathy in rat that produces disorders of pain sensation like those seen in man,” Pain 33:87-107, 1988. […] Vehicle animals receive the surgery and then receive vehicle rather than test compound. Animals were tested 1 hr, 24 h and 1 wk post-test compound or vehicle administration.
Male 2-3 month old Sprague Dawley rats were used. Harlan was the supplier for all studies. Rats were housed in Lucite cages with aspen wood chip bedding, maintained on a 12:12 light:dark cycle (lights on at 5 AM), and given ad libitum access to Purina lab chow (USA) and tap water throughout the study.
Rats were anesthetized using inhaled isoflurane (2.5%). Sciatic nerve chronic constriction nerve injury surgery was performed as previously described (Bennett and Xie, 1988). An incision (˜1.5 cm in length) was made with a scalpel blade dorsally through skin on the right hind limb, parallel and posterior to femur. Using a small pointed hemostat, the biceps femoris and gluteus superficialis muscles were separated. Using curved blunt forceps, the common sciatic nerve was isolated and exposed. For the mechanical analgesia studies, the whole sciatic nerve was ligated. Using hemostats/forceps and chromic gut (5-0), the nerve was loosely ligated with a square knot; 3 ligatures, 1 mm apart were placed on the nerve. […] Testing occurred approximately 2 weeks post-surgery.
During testing, rats were acclimated to the surface of a suspended wire mesh grid (1 cm×1 cm, with the wire being 0.3 cm in diameter) for 15-20 min Starting from the smallest, each Von Frey filament was pressed perpendicularly to the plantar surface of the affected (ipsilateral) hind paw until slightly bent and then held for 6 second. If an obvious hind paw withdrawal or a flinching behavior immediately after the withdrawal of the filament was not observed, the next larger filament was used in the same manner. In case of a response, a lower filament was used. This was repeated until six responses were collected.
For all studies, animals were baselined prior to study start to test for allodynia (defined as a paw withdrawal threshold under 5). A subset of animals was tested with gabapentin (150 mg/kg, PO) to ensure at least 50% analgesia. Once it was confirmed animals were ready for study initiation, animals were balanced across groups. All study investigators were blind to treatment conditions. Animals were dosed with 0.1, 1 or 10 mg/kg of test compound via oral gavage (PO), control sets of animals were dosed with gabapentin (150 mg/kg, PO) or vehicle (0.5% Na-CMC in 0.9% sterile saline, PO). Testing occurred 1 h post-dosing with animals retested 24 hrs and 1 week post-dosing. The percent analgesia calculations for each animal were made using the following equation: % analgesia=[(log(x)−y)/((log (z)−y)]*100, where x=the paw withdrawal threshold for the drug-treated animal in grams, y=the average of the log(x) values for the vehicle treated group, and z=the paw withdrawal threshold for naïve animals in grams (historical value of 15 used). The results for Compound AD, where the percentage of analgesia is measured at 1 hour, 24 hours, and 1 week after compound administration are as follows: for 0.1 mg/kg dose: 37.8% at 1 h, 29.7% at 24 h, and 63.1% at 1 wk; for 1 mg/kg dose: 48.8% at 1 h, 20.6% at 24 h, and 19.8% at 1 wk; and for 10 mg/kg dose: 70.3% at 1 h, 38.8% at 24 h, and 11.3% at 1 wk.

T1 sequence (Q13224 27-1484, other chains not shown): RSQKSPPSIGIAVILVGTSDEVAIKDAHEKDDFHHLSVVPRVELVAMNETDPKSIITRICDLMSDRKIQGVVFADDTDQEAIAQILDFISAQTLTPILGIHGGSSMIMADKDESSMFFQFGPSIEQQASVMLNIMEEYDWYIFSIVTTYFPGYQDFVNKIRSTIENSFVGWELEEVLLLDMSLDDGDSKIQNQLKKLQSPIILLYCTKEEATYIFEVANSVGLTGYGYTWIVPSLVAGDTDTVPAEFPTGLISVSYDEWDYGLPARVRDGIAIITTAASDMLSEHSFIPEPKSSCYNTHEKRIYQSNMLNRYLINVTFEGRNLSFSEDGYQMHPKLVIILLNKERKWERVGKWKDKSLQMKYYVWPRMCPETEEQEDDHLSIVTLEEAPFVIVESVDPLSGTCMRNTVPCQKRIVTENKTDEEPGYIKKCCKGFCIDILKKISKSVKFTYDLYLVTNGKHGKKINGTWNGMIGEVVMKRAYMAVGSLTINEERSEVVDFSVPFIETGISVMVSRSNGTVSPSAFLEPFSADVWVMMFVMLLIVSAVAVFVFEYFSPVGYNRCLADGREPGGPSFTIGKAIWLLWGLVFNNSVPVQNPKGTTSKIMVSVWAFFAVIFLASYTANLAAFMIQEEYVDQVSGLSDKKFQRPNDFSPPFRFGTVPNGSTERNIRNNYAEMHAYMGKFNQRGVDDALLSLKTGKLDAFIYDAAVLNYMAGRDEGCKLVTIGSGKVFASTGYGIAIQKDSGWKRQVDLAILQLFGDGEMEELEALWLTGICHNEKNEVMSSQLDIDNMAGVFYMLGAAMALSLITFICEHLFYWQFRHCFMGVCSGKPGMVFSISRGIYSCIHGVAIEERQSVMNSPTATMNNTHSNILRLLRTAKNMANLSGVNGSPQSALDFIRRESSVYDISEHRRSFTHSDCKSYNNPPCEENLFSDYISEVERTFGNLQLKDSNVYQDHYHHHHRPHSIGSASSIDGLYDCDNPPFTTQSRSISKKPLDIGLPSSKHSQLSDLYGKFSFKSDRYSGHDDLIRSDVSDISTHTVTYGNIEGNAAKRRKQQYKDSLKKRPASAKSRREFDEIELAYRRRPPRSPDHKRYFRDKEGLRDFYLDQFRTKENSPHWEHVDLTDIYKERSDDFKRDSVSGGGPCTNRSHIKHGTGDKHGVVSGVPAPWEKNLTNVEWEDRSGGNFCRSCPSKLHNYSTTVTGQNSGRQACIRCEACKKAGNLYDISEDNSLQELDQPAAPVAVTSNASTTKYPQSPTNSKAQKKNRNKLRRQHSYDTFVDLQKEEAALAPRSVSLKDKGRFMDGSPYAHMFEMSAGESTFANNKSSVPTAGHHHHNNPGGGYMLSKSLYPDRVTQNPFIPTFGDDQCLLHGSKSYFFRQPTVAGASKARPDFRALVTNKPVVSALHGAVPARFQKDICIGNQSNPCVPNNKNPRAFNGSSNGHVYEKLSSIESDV
T2 sequence (O15399 28-1336, other chains not shown): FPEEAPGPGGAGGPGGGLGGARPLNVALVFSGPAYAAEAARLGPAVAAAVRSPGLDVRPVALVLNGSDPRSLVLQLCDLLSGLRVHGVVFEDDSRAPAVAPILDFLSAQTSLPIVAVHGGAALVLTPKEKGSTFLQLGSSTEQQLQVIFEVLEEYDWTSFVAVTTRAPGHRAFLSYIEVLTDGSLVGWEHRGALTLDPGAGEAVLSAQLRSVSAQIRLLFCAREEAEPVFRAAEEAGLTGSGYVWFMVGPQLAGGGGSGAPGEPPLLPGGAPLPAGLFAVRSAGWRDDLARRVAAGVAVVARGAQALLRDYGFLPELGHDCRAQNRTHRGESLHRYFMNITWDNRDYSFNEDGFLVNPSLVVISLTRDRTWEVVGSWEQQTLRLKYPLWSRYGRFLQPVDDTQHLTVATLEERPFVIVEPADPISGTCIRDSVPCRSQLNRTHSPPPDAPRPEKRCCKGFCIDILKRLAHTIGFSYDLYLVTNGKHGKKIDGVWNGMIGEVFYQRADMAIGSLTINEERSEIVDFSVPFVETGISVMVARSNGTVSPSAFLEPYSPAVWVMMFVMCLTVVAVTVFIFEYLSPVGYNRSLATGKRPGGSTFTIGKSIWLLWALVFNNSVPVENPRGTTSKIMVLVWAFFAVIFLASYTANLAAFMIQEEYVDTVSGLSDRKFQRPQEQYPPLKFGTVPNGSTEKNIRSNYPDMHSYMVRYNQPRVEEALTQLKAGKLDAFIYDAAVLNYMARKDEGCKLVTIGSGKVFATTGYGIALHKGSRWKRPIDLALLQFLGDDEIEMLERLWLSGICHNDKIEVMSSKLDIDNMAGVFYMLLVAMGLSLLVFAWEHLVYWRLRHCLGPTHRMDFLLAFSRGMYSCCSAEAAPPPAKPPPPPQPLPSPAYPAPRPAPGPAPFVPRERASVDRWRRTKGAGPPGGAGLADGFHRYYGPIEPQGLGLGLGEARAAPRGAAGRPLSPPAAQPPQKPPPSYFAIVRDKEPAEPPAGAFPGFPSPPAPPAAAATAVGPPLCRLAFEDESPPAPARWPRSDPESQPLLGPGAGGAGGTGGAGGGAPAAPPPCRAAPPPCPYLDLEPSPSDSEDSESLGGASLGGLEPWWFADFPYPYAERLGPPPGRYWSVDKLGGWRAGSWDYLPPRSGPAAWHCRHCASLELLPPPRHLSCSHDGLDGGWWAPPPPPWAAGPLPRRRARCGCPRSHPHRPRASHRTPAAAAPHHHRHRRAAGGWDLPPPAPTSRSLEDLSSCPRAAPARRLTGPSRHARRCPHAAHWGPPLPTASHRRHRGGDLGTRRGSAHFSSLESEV

What does the source list for CC(C)CN1[C@@]2(CC[C@@]13CNC3=O)CNC2=O [Compound AD, 5-isobutyl-2,5,8-triazadispiro[3.1.36.24]undecane-1,7-dione]?
Max Effect (mean number of 50 kHz USVs per 15 seconds) [1]: ** (**: 11-16.9); EC50 ([2]; NMDAR2B: log EC50, 50 μM glutamate, [3H]MK-801 binding): < 1 nM; Emax ([2]; read-out: NMDAR2B: % maximal [3H]MK-801 binding relative to 1 mM glycine, 50 μM glutamate, relative to 1 mM glycine): < 100%; EC50 ([3]; NMDAR2D: log EC50, 50 μM glutamate, [3H]MK-801 binding): > 100 nM; Emax ([3]; read-out: NMDAR2D: % maximal [3H]MK-801 binding relative to 1 mM glycine): 0%; AUC(0-t) (IV pharmacokinetics): 4710 ng·h/mL; clearance (IV pharmacokinetics): 7.01 mL/min/kg; half-life (IV pharmacokinetics): 136 min; C0 (IV pharmacokinetics; read-out: C0): 2800 ng/mL; Vd (IV pharmacokinetics; read-out: Vss): 0.92 L/kg; CSF Cmax ([4]; CSF): 1965.2 ng/mL; Brain Cmax ([4]; brain): 1143.2 ng/mL; AUC(0-t) ([4]; rat, plasma, po): 19300 ng·h/mL; bioavailability ([4]; rat, plasma, po): 82%; Tmax ([4]; rat, plasma, po, normal saline, read-out: Tmax): 19.8 min; Cmax ([4]; rat, po, plasma, read-out: Cmax): 8560 ng/mL; percentage of analgesia ([5]; 0.1 mg/kg PO, 1 wk after administration): 63.1%; percentage of analgesia ([5]; 0.1 mg/kg PO, 1 h after administration): 37.8%; percentage of analgesia ([5]; 0.1 mg/kg PO, 24 h after administration): 29.7%; percentage of analgesia ([5]; 1 mg/kg PO, 1 wk after administration): 19.8%; percentage of analgesia ([5]; 1 mg/kg PO, 1 h after administration): 48.8%; percentage of analgesia ([5]; 1 mg/kg PO, 24 h after administration): 20.6%; percentage of analgesia ([5]; 10 mg/kg PO, 1 wk after administration): 11.3%; percentage of analgesia ([5]; 10 mg/kg PO, 1 h after administration): 70.3%; percentage of analgesia ([5]; 10 mg/kg PO, 24 h after administration): 38.8%
